Row | SMILES | melting point
1 | Cc1nn(-c2c(Cl)cc(Cl)cc2Cl)c(N)c1C(=O)c1ccccc1Cl [Example 4, 5-Amino-4-(2-chlorobenzoyl)-3-methyl-1-(2,4,6-trichlorophenyl) pyrazole] | 222 °C
2 | COc1ccccc1C(=O)c1c(SC)nn(-c2c(Cl)cc(Cl)cc2Cl)c1N [Example 3, 5-Amino-4-(2-methoxybenzoyl)-3-methylthio-1-(2,4,6-trichlorophenyl)pyrazole] | 200 to 202 °C
